Data from article PMC5071857, “A unique peptide deformylase platform to rationally design and challenge novel active compounds” (Scientific Reports, 2016).
Like-named read-outs stand apart in the source and are kept apart here.

Key:
[1] = test system: E. faecalis EFA 103.214; test: MIC, E. faecalis EFA 103.214; type: cell-based; details: Enterococcus faecalis, EFA103.214, read-out: MIC E. faecalis EFA 103.214
Text: (§1) Two E. coli strains, one B. subtilis strain, one S. aureus strain, one E. faecalis strain, one S. agalactiae strain and three Enterobacter aerogenes strains previously described were used. Briefly, AG100 was an E. coli wild type strain and AG100A its acrAB^- derivative. EA289 was a Kan^s derivative of an E. aerogenes multi-drug resistant (MDR) clinical isolate overexpressing AcrAB-TolC efflux pumps, and EA294 and EA298 its acrAB^- and tolC^- derivatives respectively. Strains were routinely grown at 37 °C on Luria-Bertani (LB) agar or in Mueller-Hinton II broth (MH), supplemented with kanamycine (50 μg.mL^−1) for AG100A, EA294 and EA298.
(§2) MIC values of antibiotics were determined by the microdilution method in liquid MH media in microplates in the absence or presence of chemosensitizers/modulators (e.g. PMBN, PAβN), as previously described. Permeabilization, blocking of efflux pumps, and isolates with different levels of porin or efflux expression were used to assess the involvement of the membrane barrier in antibiotic activity.
(§3) Susceptibilities were determined in 96-wells microplates with an inoculum of 2 × 10^5 cfu in 200 μL of MH broth containing two-fold serial dilutions of each antibiotics or compounds. Molecules were tested alone or in combination with other molecules in equimolar ratio. MICs were realized in the absence and in the presence of a membrane permeabilizer, the polymyxine B nonapeptide (PMBN) used at 51.2 mg/L (1/5 or 1/10 of its direct MIC previously determined). Actinonin and ciprofloxacin were used as internal antibiotic reference. […] Each test was systematically performed in triplicate. The average of three independent assays is presented in μg/mL in the respective tables.

[2] = test system: E. coli AG100; test: MIC by microdilution, E. coli AG100; type: cell-based; details: 18 h at 37 °C, average of three assays; for MIC: Escherichia coli, AG100, without PMBN; for MIC AG100: with PMBN at 1/5 of its MIC
Text: as §1, §2, §3

[3] = target: T1, AtPDF1B (Arabidopsis thaliana, UniProt Q9FUZ2); test: PDF inhibition, formate dehydrogenase-coupled spectrophotometric assay (AtPDF1B); type: biochemical; details: for Ki: PDFI pre-incubated with enzyme 10 min at 37 °C, started by 2 mM Fo-Met-Ala-Ser, read-out: AtPDF1B KI*app; for Ki / IC50: 100 nM AtPDF1B; for AtPDF1B KI/KI*app: enhancement potency (slow tight-binding); for IC50: 2 mM Fo-Met-Ala-Ser, 10 min pre-incubation at 37 °C
T1 construct: made in house
T1 sequence (Q9FUZ2 83-273): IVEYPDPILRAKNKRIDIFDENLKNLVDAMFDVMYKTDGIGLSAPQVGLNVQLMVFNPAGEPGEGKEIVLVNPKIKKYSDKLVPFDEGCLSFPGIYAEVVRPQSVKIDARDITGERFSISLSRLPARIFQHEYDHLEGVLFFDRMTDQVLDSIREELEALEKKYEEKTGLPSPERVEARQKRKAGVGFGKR
Description: (§4) Enzymatic activity was measured by a spectrophotometric assay where peptide deformylase activity is coupled to that of formate dehydrogenase. The formate released by the deformylation reaction is used by FDH to convert NAD in NADH, the production of which being measured over time at 340 nm and controlled temperature (37 °C). The 200 μL reaction mixture contained 50 mM HEPES-NaOH pH7.5, 12 mM NAD^+, 4.5 U/mL FDH, 1 mM NiCl2 and PDF enzyme (either 40 nM SaPDF or 10 nM EcPDF or 100 nM AtPDF1B) previously diluted in presence of 0.1 mg/mL BSA. The reaction was started by addition of 1–6 mM Fo-Met-Ala-Ser. Kinetics parameters (kcat, Km) were derived from iterative non-linear least square fits using the Michaelis-menten equation based on the experimental data (Sigma-Plot, Kinetics module).
(§5) 1/KI*app is the slope of the v0/vi curve in function of compound concentration, where v0 and vi are the initial reaction rates in absence and presence of compound, respectively.
(§6) Determination of KI values was performed with a slightly modified protocol: reaction was started by addition of enzyme instead of Fo-Met-Ala-Ser, the latter being directly added to the mixture containing increasing concentrations of each compound. No pre-incubation of enzyme in presence of compound was done. 1/KI is the slope of the v0/vi curve in function of compound concentration, where v0 and vi are the initial reaction rates in absence and presence of compound respectively.

[4] = target: T2, EcPDF (Escherichia coli, UniProt P0A6K3); test: PDF inhibition, formate dehydrogenase-coupled spectrophotometric assay (EcPDF); type: biochemical; details: for Ki: 10 nM EcPDF; for EcPDF KI/KI*app: enhancement potency (slow tight-binding)
T2 construct: made in house
Description: as §4, with “The” for “Enzymatic activity was measured by a spectrophotometric assay where peptide deformylase activity is coupled to that of formate dehydrogenase. The”
as §5, §6

[5] = target: T1, AtPDF1B; test: PDF inhibition, formate dehydrogenase-coupled spectrophotometric assay (AtPDF1B); type: biochemical; details: no pre-incubation, assay initiated by addition of enzyme; 100 nM AtPDF1B; 37 °C
[6] = target: T3, SaPDF (Streptococcus agalactiae serotype III, UniProt Q8E378, S2A); test: biochemical; details: for Ki: SaPDF KI, no pre-incubation, assay initiated by addition of enzyme, 40 nM SaPDF, 37 °C; for SaPDF KI/KI*app: enhancement potency (slow tight-binding)
T3 construct: the recombinant protein contains all residues of the 204 amino acids mature protein; made in house; host or cells: E. coli Rosetta 2(DE3)pLysS
Description: as §4, §5, §6

[7] = target: T3, SaPDF; test: biochemical; details: SaPDF KI*app, PDFI pre-incubated with enzyme 10 min at 37 °C, started by 2 mM Fo-Met-Ala-Ser; 40 nM SaPDF
[8] = test system: S. aureus SA113; test: MIC, S. aureus SA113; type: cell-based; details: Staphylococcus aureus
Text: as §1, §2, §3

[9] = test system: E. coli AG100A (AcrAB- derivative); test: MIC by microdilution, E. coli AG100A; type: cell-based; details: for MIC: Escherichia coli, 18 h, read-out: MIC AG100A; for MIC AG100A: with PMBN at 1/5 of its MIC, 18 h at 37 °C, average of three assays
Text: as §1, §2, §3

[10] = test system: E. aerogenes Ea294, Ea289 derivative AcrAB-; test: MIC by microdilution, E. aerogenes Ea294; type: cell-based, Enterobacter aerogenes; details: for MIC Ea294: +PMBN at 1/5 of its MIC, average of three assays; for MIC: Klebsiella aerogenes, 18 h, read-out: MIC Ea294
Text: as §1, §2, §3

[11] = test system: E. aerogenes Ea298, Ea289 derivative tolC-; test: MIC by microdilution, E. aerogenes Ea298; type: cell-based, Enterobacter aerogenes; details: for MIC Ea298: +PMBN at 1/5 of its MIC, average of three assays; for MIC: Klebsiella aerogenes, 18 h, read-out: MIC Ea298
Text: as §1, §2, §3

[12] = test system: E. aerogenes Ea289, MDR strain; test: MIC by microdilution, E. aerogenes Ea289; type: cell-based, Enterobacter aerogenes; details: for MIC Ea289: +PMBN at 1/5 of its MIC, average of three assays; for MIC: Klebsiella aerogenes, 18 h, read-out: MIC Ea289
Text: as §1, §2, §3

[13] = EcPDF KI*app, PDFI pre-incubated with enzyme 10 min at 37 °C, started by 2 mM Fo-Met-Ala-Ser
[14] = EcPDF KI, no pre-incubation, assay initiated by addition of enzyme, 37 °C

T3 sequence (Q8E378 whole entry S2A): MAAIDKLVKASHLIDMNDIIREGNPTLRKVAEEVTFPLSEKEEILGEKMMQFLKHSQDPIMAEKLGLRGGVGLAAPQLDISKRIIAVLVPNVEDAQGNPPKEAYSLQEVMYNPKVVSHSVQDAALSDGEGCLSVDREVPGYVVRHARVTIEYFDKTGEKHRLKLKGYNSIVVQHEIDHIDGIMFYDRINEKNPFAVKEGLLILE
T2 sequence (P0A6K3 whole entry): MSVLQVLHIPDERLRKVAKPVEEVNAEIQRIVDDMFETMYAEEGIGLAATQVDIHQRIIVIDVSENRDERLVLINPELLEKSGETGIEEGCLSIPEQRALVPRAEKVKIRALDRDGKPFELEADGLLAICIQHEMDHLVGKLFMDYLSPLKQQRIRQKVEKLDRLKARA

Row | Structure (SMILES) | MIC [1] | MIC [2] | MIC AG100 [2] | Ki [3] | AtPDF1B KI/KI*app [3] | IC50 [4] | Ki [4, 13] | Ki [4, 14] | EcPDF KI/KI*app [4] | Ki [5] | IC50 [6] | Ki [6] | Ki [7] | MIC [8] | MIC [9] | MIC AG100A [9] | IC50 [3] | SaPDF KI/KI*app [6] | MIC Ea294 [10] | MIC [10] | also measured
1 | CCCCC(CC(=O)NO)c1nc(Cc2ccc(F)cc2)no1 (stereo not shown) [AT002] | > 64 µg/mL | > 64 µg/mL | 64 µg/mL | 53 ± 3 nM | 1 | 4 ± 1 nM | 5 ± 2 nM | 31 ± 7 nM | 6 | 58 ± 4 nM | 3.5 ± 0.8 nM | 13 ± 1 nM | 4 ± 0.5 nM | > 64 µg/mL | > 64 µg/mL | 32 µg/mL | – | – | – | – | –
2 | CC(C)(C)OC(=O)N[C@@H](Cc1ccccc1)CN(O)C=O [RAS358] | – | – | – | 400 ± 37 nM | 5 | 110 ± 10 nM | 164 ± 40 nM | 833 ± 30 nM | 5 | 2000 ± 150 nM | 150 ± 12 nM | 1430 ± 125 nM | 454 ± 29 nM | – | – | – | 251 ± 15 nM | 3 | – | – | –
3 | O=C(Cn1cc(Cc2ccccc2)c2cc(Br)ccc21)NO [SMP289] | 16 µg/mL | > 64 µg/mL | 8 µg/mL | 1430 nM | 1 | 480 ± 30 nM | 625 ± 75 nM | 769 ± 30 nM | 1 | 1000 ± 78 nM | 360 ± 21 nM | 909 ± 64 nM | 714 ± 72 nM | 4 µg/mL | > 64 µg/mL | 4 µg/mL | 703 ± 47 nM | 1 | – | – | –
4 | CCCCC(CC(=O)NO)c1nc(-c2ccc(C(F)(F)F)cc2)no1 (stereo not shown) [AT011] | > 64 µg/mL | > 64 µg/mL | 8 µg/mL | 5000 nM | – | 215 ± 17 nM | 333 ± 13 nM | – | – | – | 128 ± 32 nM | 400 ± 20 nM | 430 ± 39 nM | > 64 µg/mL | 32 µg/mL | 4 µg/mL | 6000 nM | 1 | 16 µg/mL | 128 µg/mL | MIC Ea298 [11]: 16 µg/mL; MIC [11]: 128 µg/mL; MIC Ea289 [12]: 64 µg/mL; MIC [12]: > 128 µg/mL
5 | CCCC[C@H](CC(=O)NO)c1nc(Cc2coc3ccccc23)no1 [AT015] | > 64 µg/mL | > 64 µg/mL | 16 µg/mL | 1100 nM | – | 17 ± 2 nM | 10 ± 2 nM | 35 ± 5 nM | 3 | – | 20 ± 3 nM | 166 ± 12 nM | 122 ± 13 nM | > 64 µg/mL | 32 µg/mL | 2 µg/mL | 300 ± 12 nM | 1 | 16 µg/mL | > 128 µg/mL | MIC Ea298 [11]: 8 µg/mL; MIC [11]: 128 µg/mL; MIC Ea289 [12]: 128 µg/mL; MIC [12]: > 128 µg/mL
